Where a name gives a salt, the structure may show the parent alone. Read-outs that look alike come from different tables or passages of the source.
Experiments:
aromatase [1] = molecular target: T1, aromatase (Homo sapiens, UniProt P11511); assay: biochemical; details: read-out: IC50-values (concentration of the compound required to obtain 50% inhibition of the estrogen synthesis)
T1 sequence (P11511 1-503): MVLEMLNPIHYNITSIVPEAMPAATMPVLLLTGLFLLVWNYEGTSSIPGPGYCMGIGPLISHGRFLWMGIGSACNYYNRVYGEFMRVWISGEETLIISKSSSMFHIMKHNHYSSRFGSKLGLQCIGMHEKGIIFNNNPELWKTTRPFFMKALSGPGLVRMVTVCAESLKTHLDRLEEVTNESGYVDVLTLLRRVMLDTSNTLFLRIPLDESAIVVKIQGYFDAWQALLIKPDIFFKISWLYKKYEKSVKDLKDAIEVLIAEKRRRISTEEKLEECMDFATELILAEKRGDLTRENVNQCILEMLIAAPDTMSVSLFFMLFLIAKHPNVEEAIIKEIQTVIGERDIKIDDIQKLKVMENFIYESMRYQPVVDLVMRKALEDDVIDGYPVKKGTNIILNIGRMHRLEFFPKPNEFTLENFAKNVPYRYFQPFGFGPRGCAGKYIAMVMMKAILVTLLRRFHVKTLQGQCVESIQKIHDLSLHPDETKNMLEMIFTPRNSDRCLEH
Method: Human placental microsomes were diluted in potassium phosphate buffer (0.1M, pH 7.4) to give about 50% conversion of androgens to estrogens (protein content: about 0.5 mg). Four ml human placental microsomes were incubated in a final volume of 5 ml with 0.2 μCi1,2[3H]-androstenedione, 2 μg androstendione and 5 μl of test compound and/or dimethyl sulfoxide (DMSO). […] The reaction was initiated by the addition of androstenedione and proceeded for 30 min at 37° C. During the incubation period, the mixtures were gassed with air. In this assay, aromatization of androstenedione results in the production of [3H]-H2 O which is isolated by extracting the samples with chloroform to remove the free steroid.

aromatase [2] = assay: In vivo-inhibition of the aromatase activity (plasma estradiol in PMSG-injected immature female Wistar rats); parameters: species or system rat (immature female Wistar rats)
Method: Immature female Wistar rats weighing 120 g were injected subcutaneously with 200 I.U. of pregnant mare's serum gonadotropin (PMSG). […] Control animals received 20% polyethyleneglycol only. Two hours following drug or placebo administration the rats were killed by decapitation and trunk blood was collected on heparine. Plasma estradiol concentrations were measured by standard radio-immunological procedures.

[3] = human placental microsomes, 30 min at 37° C., pH 7.4, 1,2[3H]androstenedione
[4] = 1 mg/kg oral gavage, two hours following administration, PMSG-injected immature female Wistar rats

Structure (SMILES)	IC50 (aromatase [1]; [3])	% recovery estradiol (plasma estradiol relative to the controls) (aromatase [2]; [4])	% recovery estradiol (plasma estradiol relative to the controls) (aromatase [2]; rat, in vivo)	IC50 (aromatase [1])
Cn1nnc2ccc(C(c3ccc(Cl)cc3)n3ccnc3)cc21 (centres unmarked) [Compound 48]	16.6 nM	6%		
CCCCn1nnc2ccc(C(c3ccccc3)n3ccnc3)cc21.O=C(O)C(=O)O (centres unmarked) [Compound 75, 1-butyl-6-[(1H-imidazol-1-yl)phenylmethyl]-1H-benzotriazole ethanedioate(1:1)]	24.2 nM	27%		
c1csc(Cn2nnc3ccc(Cn4ccnc4)cc32)c1 [Compound 111]	14.3 nM	19%		
Clc1ccc(C(c2ccc3nnn(-c4ccccc4)c3c2)n2ccnc2)cc1.O=[N+]([O-])O (centres unmarked)			21%	
CCC(C)n1nnc2ccc(Cn3ccnc3)cc21 (centres unmarked) [Compound 101]	17.4 nM	7%		
Clc1ccc(C(c2ccc3nnn(C4CCCCC4)c3c2)n2ccnc2)cc1 (centres unmarked) [Compound 117]	12.5 nM	9%		
Cn1nnc2ccc(C(c3cccc(Br)c3)n3ccnc3)cc21 (centres unmarked) [Compound 50]	18.3 nM	1%		
c1cn(Cc2ccc3nnn(C4CCCCCC4)c3c2)cn1 [Compound 100]	14.3 nM	3%		
Cn1nnc2ccc(C(c3ccc(Br)cc3)n3ccnc3)cc21 (centres unmarked) [Compound 51]	22.2 nM	7%		
CCOn1nnc2ccc(Cn3ccnc3)cc21.Cl [Compound 225, 1-ethoxy-6-(1H-imidazol-1-ylmethyl)-1H-benzotriazole monohydrochloride]	10 nM	19%		
CCCCn1nnc2ccc(Cn3ccnc3)cc21 [Compound 147, 1-butyl-6-(1H-imidazol-1-ylmethyl)-1H-benzotriazole]	7.6 nM	21%		
CCCC(c1ccc2nnn(C)c2c1)n1ccnc1 (centres unmarked) [Compound 31]	34.2 nM	8%		
c1ccc2c(c1)CCC2n1nnc2ccc(Cn3ccnc3)cc21 (centres unmarked) [Compound 115]	14.4 nM	22%		
Fc1cccc(Cn2nnc3ccc(Cn4ccnc4)cc32)c1 [Compound 99]	17.8 nM	11%		
c1ccc(C(c2ccc3nnn(C4CCCCC4)c3c2)n2ccnc2)cc1 (centres unmarked) [Compound 104]	20.6 nM	9%		
Cn1nnc2ccc(C(c3ccccc3Cl)n3ccnc3)cc21 (centres unmarked) [Compound 56]	21.5 nM	8%		
Clc1ccc(C(c2ccc3nnn(-c4ccccc4)c3c2)n2ccnc2)cc1.O=[N+]([O-])O (centres unmarked) [mononitrate]				17.6 nM

Structure (SMILES)	IC50 (aromatase [1]; [3])	% recovery estradiol (plasma estradiol relative to the controls) (aromatase [2]; [4])	% recovery estradiol (plasma estradiol relative to the controls) (aromatase [2]; rat, in vivo)	IC50 (aromatase [1])
Cn1nnc2ccc(C(c3ccccc3)n3ccnc3)cc21 (centres unmarked) [Compound 7]	25.7 nM	7%		
CCOn1nnc2ccc(C(c3ccccc3)n3ccnc3)cc21 (centres unmarked) [Compound 4]	16 nM			
CCCCOn1nnc2ccc(Cn3ccnc3)cc21.Cl [Compound 226, 1-butoxy-6-(1H-imidazol-1-ylmethyl)-1H-benzotriazole monohydrochloride]	6.7 nM	19%		
c1cncc(COn2nnc3ccc(Cn4ccnc4)cc32)c1 [Compound 196]	11 nM			
CCCCn1nnc2ccc(C(c3ccc(Cl)cc3)n3ccnc3)cc21 (centres unmarked) [Compound 15]	22.6 nM	2%		
c1ccc(-c2ccc(COn3nnc4ccc(Cn5ccnc5)cc43)cc2)cc1 [Compound 191]	23.4 nM			
Cn1nnc2ccc(C(c3ccc(C(F)(F)F)cc3)n3ccnc3)cc21 (centres unmarked) [Compound 55]	18.8 nM	3%		
OCCCn1nnc2ccc(Cn3ccnc3)cc21 [Compound 109]	26.2 nM			
CCCCn1nnc2ccc(C(c3cccc(Cl)c3)n3ccnc3)cc21 (centres unmarked) [Compound 23]	7.5 nM			
CCCCCCCCCOn1nnc2ccc(Cn3ccnc3)cc21 [Compound 203]	17 nM			
CCOC(=O)COn1nnc2ccc(Cn3ccnc3)cc21 [Compound 198]	18 nM			
COCCOn1nnc2ccc(Cn3ccnc3)cc21 [Compound 220, 6-(1H-imidazol-1-ylmethyl)-1-(2-methoxyethoxy)-1H-benzotriazole]	20 nM			
Cc1cncn1C(c1ccccc1)c1ccc2nnn(OCc3ccccc3)c2c1 (centres unmarked) [Compound 213]	36.2 nM			
c1ccc(COn2nnc3ccc(Cn4ccnc4)cc32)cc1 [Compound 228, 6-(1H-imidazol-1-ylmethyl)-1-(phenylmethoxy)-1H-benzotriazole]	5.2 nM			
c1ccc(SCOn2nnc3ccc(Cn4ccnc4)cc32)cc1 [Compound 176]	12 nM			
CCCCCCCOn1nnc2ccc(Cn3ccnc3)cc21 [Compound 206]	8 nM			

More lines, in order of falling IC50 (aromatase [1]; [3]), values ahead:

IC50 (aromatase [1]; [3])	Structure (SMILES)	% recovery estradiol (plasma estradiol relative to the controls) (aromatase [2]; [4])	% recovery estradiol (plasma estradiol relative to the controls) (aromatase [2]; rat, in vivo)	IC50 (aromatase [1])
31.7 nM	CCn1nnc2ccc(Cn3ccnc3)cc21 [Compound 102]	2%		
29 nM	Cn1nnc2ccc(C(c3ccsc3)n3ccnc3)cc21 (centres unmarked) [Compound 69, 6-[(1H-imidazol-1-yl) (3-thienyl)methyl]-1-methyl-1H-benzotriazole]	5%		
23.2 nM	C#CCOn1nnc2ccc(Cn3ccnc3)cc21 [Compound 179]			
19.8 nM	c1ccc2c(c1)CCCC2n1nnc2ccc(Cn3ccnc3)cc21 (centres unmarked) [Compound 105]	14%		
18.2 nM	c1ccc(COn2nnc3ccc(C(c4ccccc4)n4ccnc4)cc32)cc1 (centres unmarked) [Compound 188]			
18 nM	COc1ccc(C(c2ccc3nnn(C)c3c2)n2ccnc2)cc1 (centres unmarked) [Compound 59]			
16.3 nM	c1cn(Cc2ccc3nnn(C4CC5CCC4C5)c3c2)cn1 (centres unmarked) [Compound 103]	5%		
15.9 nM	Cn1nnc2ccc(C(c3ccc(F)cc3)n3ccnc3)cc21 (centres unmarked) [Compound 29]	7%		
14.1 nM	c1cn(Cc2ccc3nnn(C4CCCC4)c3c2)cn1 [Compound 107]	6%		
12 nM	CCCCOn1nnc2ccc(C(c3ccccc3)n3ccnc3)cc21 (centres unmarked) [Compound 6]			
11 nM	CCC(C)On1nnc2ccc(Cn3ccnc3)cc21 (centres unmarked) [Compound 197]			
11 nM	c1ccc(CCOn2nnc3ccc(Cn4ccnc4)cc32)cc1 [Compound 208]			
8.9 nM	CC(C)CCn1nnc2ccc(C(c3ccc(Cl)cc3)n3ccnc3)cc21 (centres unmarked) [Compound 120]			
8.8 nM	Clc1ccc(Cn2nnc3ccc(Cn4ccnc4)cc32)cc1 [Compound 91]			
7.4 nM	CCCOn1nnc2ccc(Cn3ccnc3)cc21 [Compound 227, 6-(1H-imidazol-1-ylmethyl)-1-propoxy-1H-benzotriazole monohydrochloride. hemihydrate]	19%		
7.3 nM	c1ccc(CCCOn2nnc3ccc(Cn4ccnc4)cc32)cc1 [Compound 207]	26%		
7.1 nM	CCCCCCOn1nnc2ccc(Cn3ccnc3)cc21 [Compound 202]	21%		
6.7 nM	CCCCCOn1nnc2ccc(Cn3ccnc3)cc21 [Compound 201]	19%		
